According to patent US20050234100A1, “Insulin resistance as new action of loperamide” (Yu Sheng Pharmaceutical Co., Ltd., priority 2004, published 2005):

Legend:
[1] = system: Zucker-diabetic fatty rats; experiment: glucose challenge test in Zucker-diabetic fatty rats; assay type: in vivo; details: loperamide 2, 6, 18 μg/kg
Method: (§1) Animals were food-restricted and given only water to drink for overnight before the experiment. On the morning of examination, the basal blood sample (0.1 ml) drawn from the tail veins of these rats were regarded as 0 min samples. Then, each animal was immediately received an intraperitoneal injection of glucose at 1 g/kg body wt to induce the glucose tolerance test (IGTT). Blood samples from the tail vein were drawn at 5, 10, 20, 30, 60, 90, 120 min after the glucose feeding for measurement of plasma levels of glucose and insulin. Immediately after the completion of the IGTT, all animals received 2 ml of sterile saline subcutaneously to compensate for plasma loss. The obtained whole blood was thoroughly mixed with 10 IU heparin and centrifuged at 13,000×g to separate the plasma. Concentration of plasma glucose was measured by the glucose oxidase method via an analyzer (Quik-Lab, Ames, Miles Inc., Elkhart, Ind., USA) with samples run in duplicate. Enzyme-linked immunosorbent assay was carried out to measure plasma insulin using the commercial kit (Penisula Lab. Inc., Belmont, Calif., USA). Glucose-insulin index was calculated as the product of the glucose and insulin areas under the curve (AUC) as described previously (Kara et al., 2000). In order to evaluate whether loperamide could improve insulin resistance, four different doses of loperamide (2 ? 6 ? 12 ? 18 μg/kg) were injected into abdomen of each animal 30 minutes before the injection of glucose.
(§2) The blood sample was centrifuged to obtain plasma. Then, 10 μl of plasma was mixed with 1.0 ml of Glucose Kit Reagent (Biosystems S.A., Barcelona, Spain) at 37° C. for 10 minutes. The glucose concentration was measured in duplicate using Quik-lab analyzer (Ames, Miles Inc., Elkhart, Ind., USA) and expressed to the value of mg/dl. Results of plasma glucose lowering activity were calculated as percentage decrease of the initial value according to the formula: (Gi−Gt)/Gi×100% where Gi was the initial glucose concentration and Gt was the plasma glucose concentration after treatment of loperamide or same volume of vehicle.
(§3) Enzyme-linked immunosorbent assay (ELISA) was carried out to measure plasma insulin using the commercial kit (Penisula Lab. Inc., Belmont, Calif., USA). The measurement principle utilized the polyclonal antibodies in rabbit to directly identify the carboxyl-terminal of human insulin. Biotinylated peptide would compete with test subject the integration position with antibodies. After washing away the biotinylated peptides that was not integrated with antibodies, streptavidin-conjugated Horseradish Peroxidase (SA-HRP) was used to react with immobilized primary antibody/biotinylated peptide complex. Then, TMB (3,3′,5,5′-Tetramethyl Benzidine Dihydrochloride) is added to react with HRP and then yellow color was shown. The lightness or darkness of color was determined by the amount of biotinylated peptide integrated with antibodies. […] The standard curve was ploted according to the amounts of light absorption of standard subjects at 450 nm. Then through log/logit, the insulin concentration was calculated using MicroReader™ 4 Plus.
In order to know similar action of loperamide is also effective in genetic animal, the present study employed the Zucker-diabetic fatty rats to investigate IGTT in addition. Also, control group was treated with the same volume of vehicle (saline). The only difference is that glucose (0.5 g/kg) was given by intravenous injection at 30 minutes later of treatment.

[2] = system: STZ-induced type-I diabetic rats; details: intravenous injection; cited from earlier work
[3] = system: fructose-rich chow-fed Wistar rats (insulin resistance); experiment: intraperitoneal glucose tolerance test (IGTT) in fructose-induced insulin resistant rats; assay type: in vivo
Method: as §1
After 2 weeks on standard chow (Purina Mills, Inc.), half of the Wistar rats were randomly assigned to receive the fructose-rich chow (Teklad, Madison, Wis.) containing 60% fructose for 4 additional weeks to induce insulin resistance that was confirmed by the loss of tolbutamide action. The other rats still received standard chow during the 4-week period.
as §2, §3
Using glucose-insulin index (Kara et al., 2000) as indicator, effect of loperamide on insulin resistance was investigated in fructose-fed rats. The control group was treated with the same volume of saline, while test groups were injected loperamide at four doses (2 ? 6 ? 12 ? 18 μg/kg) into abdomens. […]

[4] = system: TNF-α induced insulin resistant C2C12 myoblasts; experiment: insulin-stimulated glucose uptake in TNF-α induced insulin resistant C2C12 myoblasts; assay type: cell-based, mouse; details: for glucose uptake stimulated by insulin in TNF-α treated C2C12 myoblasts, antagonist alone: without loperamide
Method: (§4) The C2C12 cells, obtained from Culture Collection and Research Center (CCRC 60083) of the Food Industry Institute (Hsin-Chiu City, Taiwan) were plated at 5×10^4 cells/dish in 35-mm diameter culture dishes in Dulbecco's modified Eagle's medium (DMEM) (GIBCO BRL, Gaithersburg, Md.) supplemented with 10% fetal bovine serum (FBS) (GIBCO BRL) and 1% antibiotic solution (penicillin 10,000 U/ml, streptomycin 10 mg/ml, amphotericin B 25 μg/ml) and were grown to 80% confluence at 37° C. in humidified atmosphere containing 5% CO2. Myoblast differentiation was induced with DMEM supplemented with 5% horse serum, L-glutamine, and penicillin/streptomycin for 72 h. Differentiated myotubes were starved for 5 h in serum-free DMEM before treatment as described previously (Sheriff et al., 1992).
Cultured C2C12 myoblasts (5×10^6) were incubated with loperamide at desired concentration or the same volume of vehicle in a cultivation condition oxygenated with a mixture of 95% O2 and 5% CO2 at 37° C. temperature for 3 days. Then, tumor necrosis factor-α (TNF-α) at concentration of 10 ng/ml was added. One hour later, cells were flushed down with 0.05% trypsin and put under centrifugal force at 13,000 rpm for 5 minutes, and clear liquid on top was then thrown away. Insulin ([…]) was used to simulate glucose uptake into cells using 2-[1-^14C]-Deoxy-D-Glucose (2-DG) (the final concentration of isotope was 0.25 μCi/ml) as indicator for 5-min incubation. The reaction was terminated in ice-bath. Then, C2C12 myoblasts were washed with buffer liquid three times. Finally, cells were lysed with 1 M NaOH and put into scintillation vial. The 2-DG specific uptake of cells was measured as indicated above.
The effect of loeramide on insulin resistance was further investigated in C2C12 myoblasts using TNF-α induced insulin resistance as described previously (Ruan et al., 2002; Mikael et al., 2002). Incubation with loperamide for 3 days at desired concentration, C2C12 myoblasts were treated with TNF-α (10 ng/ml) for one hour. Then, insulin was used to stimulate glucose uptake using 2-DG as indicator following the above method.

C2C12 myoblasts = experiment: 2-DG glucose uptake in C2C12 myoblasts; assay type: cell-based, mouse
Method: as §4
Glucose uptake was determined using 2-[^14C]-deoxy-D-glucose (2-DG) (New England Nuclear, Boston, Mass.). After 5 h of serum starvation, cells were incubated with or without pharmacological inhibitors at indicated concentrations for 30 min at 37° C. Then, the cells were incubated with loperamide at indicated concentrations at 37° C. for another 30 min under continuous shaking at 40 cycles/min. The cells were further incubated with 2-DG (1 μCi/ml) for 5 min at 37° C. Uptake was terminated by aspiration of the solution. Cells were then washed three times, and radioactivity associated with the cells was determined by cell lysis in 1 M NaOH, and the aliquots were neutralized to be estimated in scintillation counter. 2-DG uptake was expressed as the percentage of the basal 2-DG uptake that was taken as 100% from samples incubated with DMEM only. Nonspecific uptake was obtained by parallel determinations in the presence of 20 μmol/l cytochalasin B (Sigma, St. Louis, Mo., USA).

[5] = TNF-α treated C2C12 myoblasts, antagonist dose dependence

## CN(C)C(=O)C(CCN1CCC(O)(c2ccc(Cl)cc2)CC1)(c1ccccc1)c1ccccc1 [loperamide]
[1]
  AUC of plasma glucose: inhibited by loperamide but at a higher dosing
  glucose-insulin index: dose-dependently decreased
  total area (AUC) of plasma insulin: reduced by loperamide in a dose-dependent manner
[1]; 5 min after glucose injection
  plasma insulin after glucose challenge: reduction of plasma insulin by loperamide was obtained in a dose-dependent fashion
[1]; 35 min after treatment (5 min after 0.5 g/kg glucose i.v.)
  plasma glucose after glucose challenge: lowering of plasma glucose
[2]
  plasma glucose: produced plasma glucose lowering effect
[3]; fructose-fed rats, loperamide 2, 6, 12, 18 μg/kg into abdomen, 60 minutes after injection (30 minutes after 1 g/kg glucose i.p.), vs control group
  raise of plasma glucose during IGTT: reduce the raise of plasma glucose significantly
[3]; fructose-fed rats, loperamide 2-18 μg/kg into abdomen
  plasma insulin levels and incremental area under the insulin curve during IGTT: lowered
[3]; fructose-fed rats, loperamide 2-18 μg/kg into abdomen, vs vehicle-treated control
  total AUC for the glucose response during IGTT: markedly lower than that from vehicle-treated control
[3]; fructose-rich chow-fed rats, loperamide 2-18 μg/kg into abdomen, index = product of glucose and insulin AUC
  glucose-insulin index during IGTT: reduced the value of glucose-insulin index
[4]; loperamide 10 μM (maximal concentration)
  glucose uptake in TNF-α induced insulin resistant C2C12 myoblasts: reversed the glucose uptake in TNF-α induced insulin resistant C2C12 myoblasts to the level near normal control
[4]; loperamide incubation 3 days, TNF-α 10 ng/ml 1 hour, dose dependence
  glucose uptake stimulated by insulin in TNF-α treated C2C12 myoblasts: reversed the glucose uptake stimulated by insulin in TNF-α treated C2C12 myoblasts in a dose-dependent manner
C2C12 myoblasts; C2C12 myoblasts about 10^6 cells, 37° C.
  incubation time to maximal plateau of 2-DG uptake: about 25 min
C2C12 myoblasts; loperamide 10 nM to 10 μM, 30 min incubation
  2-DG uptake, concentration dependence: increase of 2-DG uptake in a concentration-dependent manner
C2C12 myoblasts; loperamide 10 μM (maximal concentration), N=8
  glucose uptake relative to control: about 1.3 times of the control
C2C12 myoblasts; loperamide 10 μM, no antagonist, 8 experiments
  2-DG uptake: 204.3±4.7 pmol/mg protein/5 min

## C=CCN1CC[C@]23c4c5ccc(O)c4O[C@H]2/C(=N/N=C2\CC[C@@]4(O)[C@H]6Cc7ccc(O)c8c7[C@@]4(CCN6CC=C)[C@H]2O8)CC[C@@]3(O)[C@H]1C5 [naloxonazine]
[4]; [5]
  effect of antagonist on action of loperamide (10 μM): inhibited the effect of loperamide in a dose-dependent manner
[4]; antagonist at 1 μM
  effect of antagonist on action of loperamide (10 μM): eliminated the action of loperamide
  glucose uptake stimulated by insulin in TNF-α treated C2C12 myoblasts, antagonist alone: did not modify the glucose uptake

## C=CCN1CC[C@]23c4c5ccc(O)c4O[C@H]2C(=O)CC[C@@]3(O)[C@H]1C5 [naloxone]
[3]; naloxone 1 mg/kg 1 hour before loperamide 18 μg/kg, fructose-rich chow-fed rats
  action of loperamide to lower glucose-insulin index in the presence of naloxone: reversed to that near to the value in fructose-rich chow-fed rats received vehicle treatment
[3]; naloxone 1 mg/kg, fructose-rich chow-fed rats
  glucose-insulin index, naloxone alone: did not modify the value of glucose-insulin index directly
[4]; [5]
  effect of antagonist on action of loperamide (10 μM): inhibited the effect of loperamide in a dose-dependent manner
[4]; antagonist at 1 μM
  effect of antagonist on action of loperamide (10 μM): eliminated the action of loperamide
  glucose uptake stimulated by insulin in TNF-α treated C2C12 myoblasts, antagonist alone: did not modify the glucose uptake
C2C12 myoblasts; naloxone 0.1 μM, 8 experiments
  loperamide (10 μM)-induced 2-DG uptake in the presence of antagonist: 183.2±4.1 pmol/mg protein/5 min
C2C12 myoblasts; naloxone 1 μM, 8 experiments
  loperamide (10 μM)-induced 2-DG uptake in the presence of antagonist: 169.9±5.0 pmol/mg protein/5 min
